Source: patent US7902363B2, “Diimide-based semiconductor materials and methods of preparing and using the same” (Polyera Corporation, priority 2006, dated 2011)

Assays:
[1] = Solubility data in organic common solvents; assay type: physicochemical; conditions: comparison in words
Source text: Solubility data were obtained for compounds of the present teachings in various organic common solvents (Table 3). N,N′-bis(4-n-octyl)-1,7-dicyanoperylene-3,4:9,10-bis(dicarboxiamide) (PDI8-CN2) was included as a comparative compound.

[2] = Solubility of isolated product in common organic solvents (noted at work-up); assay type: physicochemical; conditions: product after cyanation
Protocol: A mixture of N,N′-bis[4-(2′,3′,4′,5′,6′-pentafluorobiphenyl)]-1,7-dibromoperylene-3,4:9,10-bis(dicarboxiamide) (0.21 g, 0.203 mmol) and CuCN (0.33 g, 3.69 mmol) in DMF (10 mL) was deaerated and placed under nitrogen. The reaction mixture was heated at 150° C. for 9 hours. After cooling to room temperature, the precipitate was collected by filtration, washed several times with MeOH, and dried overnight. The product (0.11 g, 0.12 mmol, 59.1% yield) was insoluble in common organic solvents and it was gradient-sublimed.
A mixture of N,N′-bis(4-benzoylphenyl)-1,7-dibromoperylene-3,4:9,10-bis(dicarboxiamide) (0.60 g, 0.66 mmol) and CuCN (1.07 g, 12.0 mmol) in DMF (27 mL) was deaerated and placed under nitrogen. The reaction mixture was heated at 150° C. for 6 hours. After cooling to room temperature, the precipitate was collected by filtration, washed several times with MeOH, and dried overnight. The crude solid (0.42 g) was insoluble in common organic solvents.

| Compound | solubility compared to PDI8-CN2 and the other compounds of Table 3 [1] | solubility in common organic solvents [2] |
| --- | --- | --- |
| CC(C)=CCC[C@H](C)CCN1C(=O)c2ccc3c4c(C#N)cc5c6c(ccc(c7c(C#N)cc(c2c37)C1=O)c64)C(=O)N(CC[C@@H](C)CCC=C(C)C)C5=O [PDICitr-CN2, N,N′-bis[(3S)-3,7-dimethyl-6-octenyl]-1,7-dicyanoperylene-3,4:9,10-bis(dicarboxiamide)] | unexpected increase in solubility |  |
| N#Cc1cc2c3c(ccc4c5c(C#N)cc6c7c(ccc(c1c34)c75)C(=O)N(c1ccc(C(=O)c3ccccc3)cc1)C6=O)C(=O)N(c1ccc(C(=O)c3ccccc3)cc1)C2=O [PDIPhCOPh-CN2, N,N′-bis(4-n-benzoylphenyl)-1,7-dicyanoperylene-3,4:9,10-bis(dicarboxiamide)] |  | insoluble |
| N,N′-bis[4-(2′,3′,4′,5′,6′-pentafluorobiphenyl)]-1,7-dibromoperylene-3,4:9,10-bis(dicarboxiamide) [PDIPhPh^F-CN2] |  | insoluble |
